In US10662159B2, “ABHD6 and dual ABHD6/MGL inhibitors and their uses” (MAKScientific, LLC, priority 2017, dated 2020):

Assays:
Format in all cases: biochemical
hABHD6 = hABHD6 (Homo sapiens (Human), UniProt Q9BV23); experiment: Fluorescent assay for hABHD6 (AHMMCE substrate hydrolysis); conditions: membrane fraction containing full-length hABHD6, 20 μM AHMMCE; read-out: ABHD6 Inhibition IC50
Method: (§1) Certain compounds were tested for their ABHD6 and dual ABHD6/MGL inhibitory activity, which is expressed as % of inhibition or IC50 values in Table 1. The percentage of inhibition describes the percentage by which the inhibitor reduces the velocity/rate of 2-AG hydrolysis by ABHD6, and MGL or AEA hydrolysis by FAAH. […] The lower the IC50 values, the higher its inhibitory activity. A detailed description of the methods used to test inhibitory activity of compounds is given below.
Fluorescent Assays Protocol for hABHD6
Initial Fluorescent Inhibition Assay (3-Point)—
In each well of a 96-well plate 8 μL of membrane fraction containing full-length hABHD6 (1 μg total protein) was mixed with 168 μL of assay buffer (50 mM Tris-HCl, pH 7.6), and 20 μL of diluted compound (diluted in a dilution buffer consisting of 50% DMSO/50% assay buffer v/v). Each plate was incubated at RT for 15 minutes before adding 4 μL of 1 mM AHMMCE substrate (final concentration of 20 μM AHMMCE and final volume of 200 μL). The reaction was allowed to proceed for 1 hr at RT before the fluorescence was read at λex 360 nm and λem 460 nm and the inhibition calculated. Each experiment can test 8 compounds at three concentrations (usually 10 μM, 1 μM, and 100 nM).
IC50 Determination Assay (8-Point)—
A more detailed assay with an extended range tests compounds over 8 concentrations depending on the pre-determined approximate IC50 value from the initial screen. […] The assay was conducted in 96 well plate with each well containing the same reaction mixture detailed above in the 3-point screen. The relative fluorescence is quantified into coumarin produced by using a standard curve of HMMC in triplicate on each plate. Results are normalized to the negative control wells and the IC50 is determined using a non-linear regression curve fit in Prism, version 5 (GraphPad, San Diego, Calif.).

hMGL = hMGL (Homo sapiens (Human), UniProt Q99685); experiment: Fluorescent assay for hMGL (AHMMCE substrate hydrolysis); conditions: E. coli lysate containing hMGL, read-out: hMGL Inhibition IC50
Method: as §1
Preparation of Human MAGL (hMAGL)
Fluorescent Assay Protocol for hMGL
This medium throughput assay involved a 96-well plate format in which hMGL activity was monitored by the hydrolysis of the substrate […] (AHMMCE) to form the fluorescent product, coumarin. […] Upon the addition of AHMMCE, the reaction was incubated at 25° C. for 120 min; fluorescence readings were taken every 15 min at 360 nm/460 nm (λexcitation/λemission) using a Synergy HT Plate Reader (Bio-Tek, Winooski, Vt.). […] External standards were used to convert relative fluorescence units to the amount of 4-methylcoumarin formed. All MGL assays were performed in triplicate for each inhibitor concentration, and IC50 values were calculated using Prizm software (GraphPad Software, Inc., San Diego, Calif.).

Rat ΔTM FAAH = Rat ΔTM FAAH (Rattus norvegicus (Rat), UniProt P97612); experiment: Fluorescent assay for rat ΔTM FAAH (AAMCA substrate); conditions: ΔTM rFAAH, AAMCA 20 μM; read-out: rFAAH Inhibition IC50
Method: (§2) Certain compounds were tested for their ABHD6 and dual ABHD6/MGL inhibitory activity, which is expressed as % of inhibition or IC50 values in Table 1. The percentage of inhibition describes the percentage by which the inhibitor reduces the velocity/rate of 2-AG hydrolysis by ABHD6, and MGL or AEA hydrolysis by FAAH. The IC50 is the concentration of the inhibitor, which results in 50% inhibition of the velocity/rate of 2-AG hydrolysis by ABHD6 or MGL. The IC50 is the concentration of the inhibitor, which results in 50% inhibition of the velocity/rate of AEA hydrolysis by FAAH. The lower the IC50 values, the higher its inhibitory activity. A detailed description of the methods used to test inhibitory activity of compounds is given below.
Example 79. Preparation of Transmembrane Domain-Deleted Rat FAAH (ΔTM rFAAH)
Rat ΔTM FAAH was expressed in E. coli cells and purified using the procedure disclosed by Patricelli et al. Biochemistry (1998) 37: 15177-15187.
Example 81. Fluorescent Assay Protocol for Rat ΔTM FAAH
(§3) The fluorescence reading at the 3 hour time point (linear enzyme kinetics) was used to calculate percent inhibition based on control assays without inhibitor present. All FAAH assays were performed in triplicate for each inhibitor concentration, and IC50 values determined using Prizm software (GraphPad Software, Inc.).

hFAAH = hFAAH (Homo sapiens (Human), UniProt O00519); experiment: Fluorescent assay for hFAAH; conditions: MBP ΔTM hFAAH, procedure as for rFAAH; read-out: hFAAH Inhibition IC50
Method: as §2
Example 80. Preparation of Human FAAH in Fusion with N-Terminal Maltose Binding Tag (MBP ΔTM hFAAH)
Human FAAH without putative transmembrane domain following maltose binding protein was expressed in E. coli cells using pMALcE4 vector Alapafuja et al J. Med. Chem. (2012) 55: 10074-89.
as §3
Example 82. Fluorescent Assay Protocol for hFAAH
Procedure was followed as described for rFAAH.

Sequence of Rat ΔTM FAAH (P97612 30-579): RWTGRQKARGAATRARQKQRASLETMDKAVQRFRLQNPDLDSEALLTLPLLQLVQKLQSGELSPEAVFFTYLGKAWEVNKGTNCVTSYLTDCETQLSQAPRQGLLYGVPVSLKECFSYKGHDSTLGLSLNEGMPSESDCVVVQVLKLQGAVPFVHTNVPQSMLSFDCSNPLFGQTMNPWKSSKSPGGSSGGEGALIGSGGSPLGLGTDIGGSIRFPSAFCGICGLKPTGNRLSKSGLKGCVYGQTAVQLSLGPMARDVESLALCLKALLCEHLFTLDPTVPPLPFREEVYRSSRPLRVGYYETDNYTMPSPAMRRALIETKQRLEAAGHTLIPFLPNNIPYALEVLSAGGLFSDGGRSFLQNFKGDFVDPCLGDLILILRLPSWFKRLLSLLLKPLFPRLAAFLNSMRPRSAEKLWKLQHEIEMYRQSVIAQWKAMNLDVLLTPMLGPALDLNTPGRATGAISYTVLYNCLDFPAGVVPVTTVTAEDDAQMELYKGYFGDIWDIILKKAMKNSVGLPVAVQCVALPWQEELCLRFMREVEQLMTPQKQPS
Sequence of hMGL (Q99685 whole entry): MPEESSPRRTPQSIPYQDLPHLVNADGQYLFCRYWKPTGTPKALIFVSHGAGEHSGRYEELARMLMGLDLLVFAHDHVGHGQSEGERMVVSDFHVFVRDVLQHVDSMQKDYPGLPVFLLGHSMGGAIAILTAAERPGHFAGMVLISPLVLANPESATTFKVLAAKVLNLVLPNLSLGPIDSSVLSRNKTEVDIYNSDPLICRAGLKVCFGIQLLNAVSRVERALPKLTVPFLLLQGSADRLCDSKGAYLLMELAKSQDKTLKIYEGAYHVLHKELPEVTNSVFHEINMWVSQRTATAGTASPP
Sequence of hABHD6 (Q9BV23 whole entry): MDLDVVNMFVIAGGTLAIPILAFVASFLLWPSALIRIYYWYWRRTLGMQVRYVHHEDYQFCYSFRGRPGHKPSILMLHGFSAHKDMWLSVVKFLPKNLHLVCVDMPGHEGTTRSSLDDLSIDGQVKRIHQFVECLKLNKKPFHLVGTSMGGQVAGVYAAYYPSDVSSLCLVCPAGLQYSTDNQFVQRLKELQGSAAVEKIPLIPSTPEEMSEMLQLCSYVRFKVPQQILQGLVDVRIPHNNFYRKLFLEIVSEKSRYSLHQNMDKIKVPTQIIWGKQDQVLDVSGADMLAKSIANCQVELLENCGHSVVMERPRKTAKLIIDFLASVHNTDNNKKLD
Sequence of hFAAH (O00519 30-579): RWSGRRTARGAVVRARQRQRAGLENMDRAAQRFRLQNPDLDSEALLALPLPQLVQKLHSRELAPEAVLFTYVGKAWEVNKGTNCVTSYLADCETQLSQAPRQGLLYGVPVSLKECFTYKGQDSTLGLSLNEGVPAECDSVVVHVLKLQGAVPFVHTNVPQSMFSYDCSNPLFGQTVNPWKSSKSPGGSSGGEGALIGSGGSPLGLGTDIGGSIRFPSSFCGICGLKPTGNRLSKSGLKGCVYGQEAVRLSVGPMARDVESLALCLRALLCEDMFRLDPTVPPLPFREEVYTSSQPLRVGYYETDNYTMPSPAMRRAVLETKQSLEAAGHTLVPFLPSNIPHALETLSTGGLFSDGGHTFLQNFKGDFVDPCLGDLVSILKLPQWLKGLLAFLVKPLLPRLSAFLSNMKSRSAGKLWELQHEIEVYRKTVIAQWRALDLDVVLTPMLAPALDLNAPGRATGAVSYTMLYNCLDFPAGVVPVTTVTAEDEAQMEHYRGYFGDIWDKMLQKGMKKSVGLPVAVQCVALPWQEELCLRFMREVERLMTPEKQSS

In the case of `O=C(OC(C(F)(F)F)C(F)(F)F)N1Cc2ccc(Cl)nc2C1` [Example 14, 1,1,1,3,3,3-Hexafluoropropan-2-yl-2-chloro-5,7-dihydro-6H-pyrrolo[3,4-b]pyridine-6-carboxylate], the IC50 (hABHD6) is reported as 100 to 1000 nM, the IC50 (hMGL) is reported as > 1000 nM and the IC50 (Rat ΔTM FAAH) is reported as > 1000 nM. The IC50 (hFAAH) was > 1000 nM.

In the case of `CC1c2ccc(Br)cc2CN1C(=O)OC(C(F)(F)F)C(F)(F)F` (stereo not shown) [Example 15, 1,1,1,3,3,3-Hexafluoropropan-2-yl 5-bromo-1-methylisoindoline-2-carboxylate], the IC50 (hABHD6) is reported as > 1000 nM, the IC50 (hMGL) is reported as > 1000 nM and the IC50 (Rat ΔTM FAAH) is reported as > 1000 nM. The IC50 (hFAAH) was > 1000 nM.

`O=C(OC(C(F)(F)F)C(F)(F)F)N1CCc2c(Br)cccc2C1` [Example 16, 1,1,1,3,3,3-Hexafluoropropan-2-yl 5-bromo-3,4-dihydroisoquinoline-2(1H)-carboxylate] was tested, and the IC50 (hABHD6) was 10 to 100 nM, the IC50 (hMGL) was > 1000 nM and the IC50 (Rat ΔTM FAAH) was > 1000 nM. For the same molecule, the IC50 (hFAAH) was > 1000 nM.

`O=C(OC(C(F)(F)F)C(F)(F)F)N1CCc2cc(Br)ccc2C1` [Example 17, 1,1,1,3,3,3-Hexafluoropropan-2-yl 6-bromo-3,4-dihydroisoquinoline-2(1H)-carboxylate] was tested, and the IC50 (hABHD6) was 10 to 100 nM, the IC50 (hMGL) was > 1000 nM and the IC50 (Rat ΔTM FAAH) was > 1000 nM. For the same molecule, the IC50 (hFAAH) was > 1000 nM.

For `O=C(OC(C(F)(F)F)C(F)(F)F)N1CCc2ccc(Br)cc2C1` [Example 18, 1,1,1,3,3,3-Hexafluoropropan-2-yl 7-bromo-3,4-dihydroisoquinoline-2(1H)-carboxylate], the IC50 (hABHD6) was 100 to 1000 nM, the IC50 (hMGL) was > 1000 nM and the IC50 (Rat ΔTM FAAH) was > 1000 nM. The IC50 (hFAAH) was > 1000 nM.

`COc1cccc2c1CN(C(=O)OC(C(F)(F)F)C(F)(F)F)C2` [Example 19, 1,1,1,3,3,3-Hexafluoropropan-2-yl 4-methoxyisoindoline-2-carboxylate] was tested, and the IC50 (hABHD6) was 10 to 100 nM, the IC50 (hMGL) was > 1000 nM and the IC50 (Rat ΔTM FAAH) was > 1000 nM. For the same molecule, the IC50 (hFAAH) was > 1000 nM.

For `CC1CN(C(=O)OC(C(F)(F)F)C(F)(F)F)Cc2ccccc21` (stereo not shown) [Example 20, 1,1,1,3,3,3-Hexafluoropropan-2-yl 4-methyl-3,4-dihydroisoquinoline-2(1H)-carboxylate], the IC50 (hABHD6) was 100 to 1000 nM, the IC50 (hMGL) was > 1000 nM and the IC50 (Rat ΔTM FAAH) was > 1000 nM. For the same molecule, the IC50 (hFAAH) was > 1000 nM.

`COc1cc2c(cc1OC)CN(C(=O)OC(C(F)(F)F)C(F)(F)F)C2` [Example 21, 1,1,1,3,3,3-Hexafluoropropan-2-yl 5,6-dimethoxyisoindoline-2-carboxylate] was tested, and the IC50 (hABHD6) was 10 to 100 nM, the IC50 (hMGL) was > 1000 nM and the IC50 (Rat ΔTM FAAH) was > 1000 nM. The IC50 (hFAAH) was > 1000 nM.

In the case of `O=C(OC(C(F)(F)F)C(F)(F)F)N1CCCc2ccccc2C1` [Example 24, 1,1,1,3,3,3-Hexafluoropropan-2-yl 1,3,4,5-tetrahydro-2H-benzo[c]azepine-2-carboxylate], the IC50 (hABHD6) is reported as > 1000 nM, the IC50 (hMGL) is reported as > 1000 nM and the IC50 (Rat ΔTM FAAH) is reported as > 1000 nM. For the same molecule, the IC50 (hFAAH) was > 1000 nM.

In the case of `COc1ccc(-c2ccc3c(c2)CN(C(=O)OC(C(F)(F)F)C(F)(F)F)C3)cc1F` [Example 26, 1,1,1,3,3,3-Hexafluoropropan-2-yl 5-(3-fluoro-4-methoxyphenyl)isoindoline-2-carboxylate], the IC50 (hABHD6) is reported as 10 to 100 nM, the IC50 (hMGL) is reported as > 1000 nM and the IC50 (Rat ΔTM FAAH) is reported as > 1000 nM. For the same molecule, the IC50 (hFAAH) was > 1000 nM.

With `O=C(OC(C(F)(F)F)C(F)(F)F)N1CCc2cccc(-c3ccccc3)c2C1` [Example 27, 1,1,1,3,3,3-Hexafluoropropan-2-yl 8-phenyl-3,4-dihydroisoquinoline-2(1H)-carboxylate] the IC50 (hABHD6) was > 1000 nM, the IC50 (hMGL) was > 1000 nM and the IC50 (Rat ΔTM FAAH) was > 1000 nM. The IC50 (hFAAH) was > 1000 nM.

For `O=C(OC(C(F)(F)F)C(F)(F)F)N1Cc2ccc(OCC(F)F)cc2C1` [Example 45, 1,1,1,3,3,3-Hexafluoropropan-2-yl 5-(2,2-difluoroethoxy)isoindoline-2-carboxylate], the IC50 (hABHD6) was 10 to 100 nM, the IC50 (hMGL) was 10 to 100 nM and the IC50 (Rat ΔTM FAAH) was > 1000 nM. The IC50 (hFAAH) was > 1000 nM.

`O=C(OC(C(F)(F)F)C(F)(F)F)N1CC2(CC(Oc3cccc(C(F)(F)F)c3)C2)C1` [Example 52, 1,1,1,3,3,3-Hexafluoropropan-2-yl 6-(3-(trifluoromethyl)phenoxy)-2-azaspiro [3.3]heptane-2-carboxylate] was tested, and the IC50 (hABHD6) was 10 to 100 nM, the IC50 (hMGL) was 10 to 100 nM and the IC50 (Rat ΔTM FAAH) was > 1000 nM. The IC50 (hFAAH) was > 1000 nM.

For `O=C(OC(C(F)(F)F)C(F)(F)F)N1CC2(CC(Oc3cccc(F)c3)C2)C1` [Example 53, 1,1,1,3,3,3-Hexafluoropropan-2-yl-6-(3-fluorophenoxy)-2-azaspiro[3.3]heptane-2-carboxylate], the IC50 (hABHD6) was 10 to 100 nM, the IC50 (hMGL) was 10 to 100 nM and the IC50 (Rat ΔTM FAAH) was > 1000 nM. The IC50 (hFAAH) was > 1000 nM.

`O=C(OC(C(F)(F)F)C(F)(F)F)N1CC2(CC(Oc3cncc(F)c3)C2)C1` [Example 60, 1,1,1,3,3,3-Hexafluoropropan-2-yl 6-((5-fluoropyridin-3-yl)oxy)-2-azaspiro[3.3]heptane-2-carboxylate] was tested, and the IC50 (hABHD6) was 10 to 100 nM, the IC50 (hMGL) was > 1000 nM and the IC50 (Rat ΔTM FAAH) was > 1000 nM. For the same molecule, the IC50 (hFAAH) was > 1000 nM.

`CC1(C)C2C(=O)N(OC(=O)N3CC4(CC(Oc5cccc(C(F)(F)F)c5)C4)C3)C(=O)C21` (stereo not shown) [Example 63, 6,6-Dimethyl-2,4-dioxo-3-azabicyclo[3.1.0]hexan-3-yl 6-(3-(trifluoromethyl)phenoxy)-2-azaspiro[3.3]heptane-2-carboxylate] was tested, and the IC50 (hABHD6) was 10 to 100 nM, the IC50 (hMGL) was > 1000 nM and the IC50 (Rat ΔTM FAAH) was > 1000 nM. For the same molecule, the IC50 (hFAAH) was > 1000 nM.

In the case of `CC1(C)C2C(=O)N(OC(=O)N3CC4(CCC(Oc5cncc(F)c5)C4)C3)C(=O)C21` (stereo not shown) [Example 64, 6,6-Dimethyl-2,4-dioxo-3-azabicyclo[3.1.0]hexan-3-yl 6-((5-fluoropyridin-3-yl)oxy)-2-azaspiro[3.4]octane-2-carboxylate], the IC50 (hABHD6) is reported as 10 to 100 nM, the IC50 (hMGL) is reported as > 1000 nM and the IC50 (Rat ΔTM FAAH) is reported as > 1000 nM. For the same molecule, the IC50 (hFAAH) was > 1000 nM.

For `O=C(OC(C(F)(F)F)C(F)(F)F)N1CC[C@]2(C1)C[C@@H](OC(c1ccc(F)cc1)c1ccc(F)cc1)C2` [Example 67, 1,1,1,3,3,3-Hexafluoropropan-2-yl (2r,4s)-2-(bis(4-fluorophenyl)methoxy)-6-azaspiro[3.4]octane-6-carboxylate], the IC50 (hABHD6) was 10 to 100 nM, the IC50 (hMGL) was 10 to 100 nM and the IC50 (Rat ΔTM FAAH) was 10 to 100 nM. The IC50 (hFAAH) was > 1000 nM.

In the case of `O=C(OC(C(F)(F)F)C(F)(F)F)N1CC[C@]2(C1)C[C@H](OC(c1ccc(F)cc1)c1ccc(F)cc1)C2` [Example 68, 1,1,1,3,3,3-Hexafluoropropan-2-yl (2s,4r)-2-(bis(4-fluorophenyl)methoxy)-6-azaspiro[3.4]octane-6-carboxylate], the IC50 (hABHD6) is reported as > 1000 nM, the IC50 (hMGL) is reported as 10 to 100 nM and the IC50 (Rat ΔTM FAAH) is reported as 10 to 100 nM. The IC50 (hFAAH) was > 1000 nM.
